In ChEMBL document CHEMBL1159073, “Inhibition of IKK-beta: a new development in the mechanism of the anti-obesity effects of PTP1B inhibitors SA18 and SA32” (Bioorg Med Chem Lett, 2010):
The source made the active and inactive calls. No cut-off for these calls is given here.

Tests used:
[1] = molecular target: T1, Inhibitor of nuclear factor kappa-B kinase subunit beta (Homo sapiens, UniProt O14920); assay: Inhibition of IKK-beta by tome resolved fluorescence assay
T1 sequence (O14920 whole entry): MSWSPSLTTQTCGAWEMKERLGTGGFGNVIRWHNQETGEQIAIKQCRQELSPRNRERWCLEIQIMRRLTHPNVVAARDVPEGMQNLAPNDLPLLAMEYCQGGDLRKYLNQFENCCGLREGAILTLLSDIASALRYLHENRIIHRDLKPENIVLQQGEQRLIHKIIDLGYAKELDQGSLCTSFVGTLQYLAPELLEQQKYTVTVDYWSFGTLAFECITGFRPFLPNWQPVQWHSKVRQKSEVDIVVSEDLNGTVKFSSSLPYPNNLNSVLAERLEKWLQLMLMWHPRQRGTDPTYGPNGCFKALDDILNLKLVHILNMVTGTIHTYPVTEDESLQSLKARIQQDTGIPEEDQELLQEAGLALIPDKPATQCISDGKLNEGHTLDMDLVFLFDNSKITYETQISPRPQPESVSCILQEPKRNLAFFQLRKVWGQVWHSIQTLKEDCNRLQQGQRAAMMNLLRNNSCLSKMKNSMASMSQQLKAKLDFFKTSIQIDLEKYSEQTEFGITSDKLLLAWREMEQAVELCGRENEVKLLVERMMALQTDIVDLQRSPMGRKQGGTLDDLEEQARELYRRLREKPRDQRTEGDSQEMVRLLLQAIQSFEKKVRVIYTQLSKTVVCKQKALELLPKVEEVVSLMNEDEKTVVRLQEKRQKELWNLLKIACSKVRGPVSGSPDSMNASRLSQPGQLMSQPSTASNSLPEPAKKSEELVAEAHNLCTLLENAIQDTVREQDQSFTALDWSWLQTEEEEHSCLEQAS

Mus musculus [2] = assay: Antiobesity activity in high fat diet-induced obese C57BL/6J Jms Slc mouse model assessed as change in body weight administered through diet for 28 days (reference value: 33.4+/-2.8); assay type: functional
Mus musculus [3] = species on record: Mus musculus; assay: Inhibition of IkappaB-alpha degradation in LPS-stimulated mouse […] cells at 50 uM pretreated 30 mins before LPS containing cytokine mixture challenge measured by Western blotting; assay type: functional
Mus musculus [4] = assay: Antiobesity activity in high fat diet-induced obese C57BL/6J Jms Slc mouse model assessed as blood total cholesterol level administered through diet for 28 days (reference value: 141+/-10); assay type: functional
Mus musculus [5] = assay: Antiobesity activity in high fat diet-induced obese C57BL/6J Jms Slc mouse model assessed as epididymal adipose tissue weight administered through diet for 28 days (reference value: 1.8+/-0.49); assay type: functional
Mus musculus [6] = assay: Antiobesity activity in high fat diet-induced obese C57BL/6J Jms Slc mouse model assessed as retroperitoneal adipose tissue weight administered through diet for 28 days (reference value: 0.51+/-0.11); assay type: functional
3T3-L1 [7] = assay: Inhibition of IkappaB-alpha degradation in LPS-stimulated mouse 3T3L1 cells at 50 uM pretreated 30 mins before LPS containing cytokine mixture challenge measured after 60 mins by Western blotting; assay type: functional, cell-based
Mus musculus [8] = assay: Antiobesity activity in high fat diet-induced obese C57BL/6J Jms Slc mouse model assessed as blood triglyceride level administered through diet for 28 days (reference value: 63+/-32); assay type: functional
Mus musculus [9] = assay: Antiobesity activity in high fat diet-induced obese C57BL/6J Jms Slc mouse model assessed as blood nonesterified free fatty acid level administered through diet for 28 days (reference value: 0.35+/-0.09); assay type: functional
3T3-L1 [10] = assay: Inhibition of IkappaB-alpha degradation in LPS-stimulated mouse 3T3L1 cells at 50 uM pretreated 30 mins before LPS containing cytokine mixture challenge measured after 30 mins by Western blotting; assay type: functional, cell-based

For `O=C(Nc1cc(Cl)cc2c1[nH]c1cnccc12)c1cccnc1`, the IC50 [1] was 150 nM.

In the case of `O=C(O)c1cc(-c2ccccc2)cc(Cc2cc(-c3ccccc3)cc(C(=O)O)c2O)c1O`, the Activity (Mus musculus [2]) is reported as 28.9 g, the inhibition (Mus musculus [3]) is reported as “Active” and the Activity (Mus musculus [4]) is reported as 133 mg/dL. The Activity (Mus musculus [5]) was 0.83 g, the Activity (Mus musculus [6]) was 0.26 g and the inhibition (3T3-L1 [7]) was “Active”. For the same compound, the Activity (Mus musculus [8]) was 48 mg/dL, the Activity (Mus musculus [9]) was 0.14 mEq/L and the inhibition (3T3-L1 [10]) was “Active”.

With `O=C(O)c1cc(Cc2cc(C(=O)O)c(O)c(-c3ccccc3)c2)cc(-c2ccccc2)c1O` the Activity (Mus musculus [2]) was 29.2 g, the inhibition (Mus musculus [3]) was “Active” and the Activity (Mus musculus [4]) was 129 mg/dL. For the same compound, the Activity (Mus musculus [5]) was 0.86 g, the Activity (Mus musculus [6]) was 0.26 g and the inhibition (3T3-L1 [7]) was “Active”. For the same compound, the Activity (Mus musculus [8]) was 42 mg/dL, the Activity (Mus musculus [9]) was 0.24 mEq/L and the inhibition (3T3-L1 [10]) was “Active”.
